18 compounds from patent US20200071310A1, “N-ARYL PYRAZOLES AS NRF2 REGULATORS” (GLAXOSMITHKLINE INTELLECTUAL PROPERTY DEVELOPMENT LIMITED, priority 2016, published 2020) can be followed below.

Assay [1] has as its system NQO1 specific enzyme activity in BEAS-2B cells. In words: BEAS-2B NQO1 MTT Assay. The class given is cell-based. Particulars: Homo sapiens; NQO1 specific activity induction, BEAS-2B cells, 48 hours; read-out: EC50. The method, boiled down: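 BEAS-2B cells plated overnight, treated with compound for 48 h at 37° C, then lysed; NQO1 activity measured kinetically by MTT cocktail at 570 nm over 30 min, with lysate aliquot for Cell Titer Glo. pEC50 from 3-parameter fit of ΔOD/min versus log concentration.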

In assay [2] the target is T1, Keap1 (321-609) Kelch domain / TAMRA-labeled NRF2 peptide (ETGE motif) (Homo sapiens, UniProt Q14145).
T1 construct: the Kelch domain (321-609) of Keap1 is used
T1 sequence (Q14145 321-609): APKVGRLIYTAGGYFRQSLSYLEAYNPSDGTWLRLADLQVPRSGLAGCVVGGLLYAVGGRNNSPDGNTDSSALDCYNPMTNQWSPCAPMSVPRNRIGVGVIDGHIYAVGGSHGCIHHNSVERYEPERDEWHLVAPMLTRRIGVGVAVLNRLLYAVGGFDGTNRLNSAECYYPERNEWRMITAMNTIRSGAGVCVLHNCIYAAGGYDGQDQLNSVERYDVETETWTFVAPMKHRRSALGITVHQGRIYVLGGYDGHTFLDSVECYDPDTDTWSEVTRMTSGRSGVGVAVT
In words: NRF2-Keap1 FP Assay. The class given is binding. Particulars: Keap1 (321-609) 20 nM, Tamra labeled peptide 8 nM. The text has this: One model for the NRF2-Keap1 interaction is through two binding sites in the Neh2 domain on NRF2. The two sites are referred to as the DLG binding motif (latch domain, uM affinity) and the ETGE binding motif (hinge domain, nM affinity). The Keap1 protein consists of an N-terminal region (NTR), a broad complex, tramtrack, and brick a' brac domain (BTB), an intervening region (IVR), a double glycine repeat domain (DGR or Kelch), and a C-terminal region. The DLG and ETGE motifs of NRF2's Neh2 domain bind to the Kelch domain of Keap1 at different affinities. In the Keap1 Kelch fluorescence polarization (FP) assay, a TAMRA-labeled 16mer peptide (AFFAQLQLDEETGEFL) containing the ETGE motif of NRF2 and the Kelch domain (321-609) of Keap1 is used. The assay determines if a compound interferes with the binding between Keap1 […] and the TAMRA-labeled peptide. Binding of TAMRA-labeled NRF2 peptide to Keap1 (321-609) results in a high FP signal. If a compound interferes with the binding between the peptide and the protein, it will cause the assay signal to decrease. Thus, assay signal is inversely proportional to binding inhibition.
100 nl of 100× compound dose response curves (serial 3-fold dilutions) in DMSO were stamped using an Echo liquid handling system (Labcyte) into 384-well low volume black assay plates (Greiner, #784076), with DMSO in columns 6 and 18. The top concentration of compound was located in columns 1 and 13. Keap1 (321-609) was diluted to 40 nM (2×) in 1× assay buffer (50 mM Tris, pH 8.0, 100 mM NaCl, 5 mM MgCl2, 1 mM DTT, 2 mM CHAPS, and 0.005% BSA) and 5 ul was added using a Multidrop Combi (Thermo Electron Corporation) equipped with a metal tip dispenser to all wells of the compound plate, except column 18. Column 18 received only 5 ul of assay buffer. Immediately, 5 uL of 16 nM (2×) of Tamra labeled peptide (AFFAQLQLDEETGEFL, 21st Century Biochemicals) was added to all wells of the plate. The plates were spun at 500 rpm for 1 min, incubated for 1 hr at room temperature, and read on an Analyst GT (Molecular Devices) equipped with excitation (530/25 nm) and emission (580/10 nm) filters designed for Tamra probes. A 561 nm dichroic mirror was also used in the Analyst. The final assay concentrations of Keap1l (321-609) and Tamra labeled peptide were 20 nM and 8 nM, respectively. Fluorescence measurements, represented as mP, were used in the transformation of the data. Compound activity was calculated based on percent inhibition, normalized against controls in the assay (Control 1 contains the Tamra peptide and Keap1 (321-609) together (0% response) and control 2 contains the Tamra peptide alone (100% response)). Data analysis was handled using the software package Abase XE (Surrey, United Kingdom. The % inhibition values were calculated by the equation:
100−(100*((compound response−average control 2)/(average control 1−average control2))).
For calculation of pIC50s, Abase XE used a four parameter equation.
IC50s<1 nM (+++++), IC50s 1 nM-10 nM (++++), IC50s 10-100 nM (+++), IC50s 100 nM-1 μM (++), IC50s 1-10 μM (+), IC50s>10 μM (−), or were not determined (ND).

One may read the EC50 as the concentration needed to bring the measured effect to its halfway point. Consider `CN(Cc1cccc(-n2ncc(C(=O)O)c2[C@@H]2C[C@H]2c2cn(C)nn2)c1)S(=O)(=O)c1c(Cl)cccc1C(F)(F)F` (racemic) [Example 41, 1-(3-((2-chloro-N-methyl-6-(trifluoro-methyl)phenyl-sulfonamido)-methyl)phenyl)-5-((trans)-2-(1-methyl-1H-1,2,3-triazol-4-yl)cyclo-propyl)-1H-pyrazole-4-carboxylic acid], for which the EC50 in assay [1] lay within 1 to 10 µM; in assay [2], 0.1 to 1 µM.

As for `Cn1cc([C@@H]2C[C@H]2c2c(C(=O)O)cnn2-c2cccc(CN3Cc4ncccc4OC(C)(C)C3)c2)nn1` (racemic) [Example 9], the EC50 in assay [1] is 0.1 to 1 µM; in assay [2], 0.01 to 0.1 µM.

As to `CCCN(Cc1cccc(-n2ncc(C(=O)O)c2[C@@H]2C[C@H]2c2cn(C)nn2)c1)S(=O)(=O)c1ccccc1C` (racemic) [Example 50, 5-((trans)-2-(1-methyl-1H-1,2,3-triazol-4-yl)cyclopropyl)-1-(3-((2-methyl-N-propylphenylsulfonamido)methyl)phenyl)-1H-pyrazole-4-carboxylic acid], the EC50 in assay [1] lay in the range of 0.01 to 0.1 µM; in assay [2], 0.1 to 1 µM.

Take `COc1ccccc1S(=O)(=O)NCc1cccc(-n2ncc(C(=O)O)c2[C@@H]2C[C@H]2c2cn(C)nn2)c1` (racemic) [Example 52, 1-(3-((2-methoxyphenylsulfonamido)methyl)phenyl)-5-((trans)-2-(1-methyl-1H-1,2,3-triazol-4-yl)cyclopropyl)-1H-pyrazole-4-carboxylic acid]: the EC50 in assay [1] and in assay [2] was 0.1 to 1 µM throughout.

For the compound `COc1cc([N+](=O)[O-])ccc1S(=O)(=O)N(C)Cc1cccc(-n2ncc(C(=O)O)c2[C@@H]2C[C@H]2c2cn(C)nn2)c1` (racemic) [Example 44, 1-(3-((2-methoxy-N-methyl-4-nitrophenylsulfonamido)methyl)phenyl)-5-((trans)-2-(1-methyl-1H-1,2,3-triazol-4-yl)cyclopropyl)-1H-pyrazole-4-carboxylic acid], the EC50 in assay [1] was in the range of 1 to 10 µM; in assay [2], 0.1 to 1 µM.

For the compound `C[C@H]1Cc2cc(C(F)(F)F)ccc2S(=O)(=O)N(Cc2cccc(-n3ncc(C(=O)O)c3[C@@H]3C[C@H]3c3cn(C)nn3)c2)C1` (racemic) [Example 19, 1-(3-((4-methyl-1,1-dioxido-7-(trifluoromethyl)-4,5-dihydro-benzo[f][1,2]thiazepin-2(3H)-yl)methyl)phenyl)-5-((trans)-2-(1-methyl-1H-1,2,3-triazol-4-yl)cyclopropyl)-1H-pyrazole-4-carboxylic acid], the EC50 in assay [1] lay in the range of 1 to 10 µM; in assay [2] it was 0.1 to 1 µM.

As for `CCCCCCN(Cc1cccc(-n2ncc(C(=O)O)c2[C@@H]2C[C@H]2c2cnn(C)c2)c1)S(=O)(=O)c1ccccc1C` (racemic) [Example 56], the EC50 in assay [1] lay in the range of 0.1 to 1 µM; in assay [2] it was 1 to 10 µM.

With `C[C@@H]1Cc2cc(C(F)(F)F)ccc2S(=O)(=O)N(Cc2cccc(-n3ncc(C(=O)O)c3[C@@H]3C[C@H]3c3cnn(C)c3)c2)C1` [Example 33, 1-(3-(((R)-4-methyl-1,1-dioxido-7-(trifluoromethyl)-4,5-dihydro-benzo[f][1,2]thiazepin-2(3H)-yl)methyl)phenyl)-5-(trans-2-(1-methyl-1H-pyrazol-4-yl)cyclopropyl)-1H-pyrazole-4-carboxylic acid], the EC50 in assay [1] and in assay [2] was 1 to 10 µM throughout.

`CC[C@@H]1CN(Cc2cccc(-n3ncc(C(=O)O)c3[C@@H]3C[C@H]3c3cnn(C)c3)c2)S(=O)(=O)c2ccccc2O1` [Example 31, 1-(3-(((R)-4-ethyl-1,1-dioxido-3,4-dihydro-2H-benzo[b][1,4,5]oxathiazepin-2-yl)methyl)-phenyl)-5-(trans-2-(1-methyl-1H-pyrazol-4-yl)cyclopropyl)-1H-pyrazole-4-carboxylic acid]: the EC50 was 1 to 10 µM in assay [1] and 0.1 to 1 µM in assay [2].

In the case of `C[C@H]1Cc2ccc(C(F)(F)F)cc2S(=O)(=O)N(Cc2cccc(-n3ncc(C(=O)O)c3[C@@H]3C[C@H]3c3cn(C)nn3)c2)C1` (racemic) [Example 16, 1-(3-((4-methyl-1,1-dioxido-8-(trifluoromethyl)-4,5-dihydro-benzo[f][1,2]thiazepin-2(3H)-yl)methyl)phenyl)-5-((trans)-2-(1-methyl-1H-1,2,3-triazol-4-yl)cyclopropyl)-1H-pyrazole-4-carboxylic acid], the EC50 in assay [1] fell in the range of 0.1 to 1 µM; in assay [2], 0.001 to 0.01 µM.

For `CC(c1cccc(-n2ncc(C(=O)O)c2[C@@H]2C[C@H]2c2cn(C)nn2)c1)N1C[C@@H](C)Cc2ccc(C(F)(F)F)cc2S1(=O)=O` (single isomer, unassigned) [Example 6, 1-(3-((R or S)-1-((S)-4-Methyl-1,1-dioxido-8-(trifluoromethyl)-4,5-dihydrobenzo[f][1,2]thiazepin-2(3H)-yl)ethyl)phenyl)-5-((1R,2R)-2-(1-methyl-1H-1,2,3-triazol-4-yl)cyclopropyl)-1H-pyrazole-4-carboxylic acid], the EC50 is 0.1 to 1 µM in assay [1] and 0.001 to 0.01 µM in assay [2].

Turning to `Cn1cc([C@@H]2C[C@H]2c2c(C(=O)O)cnn2-c2cccc(CN3Cc4ccccc4CC(C)(C)C3)c2)nn1` (racemic) [Example 7], the half-maximal effective concentration (EC50) in assay [1] fell in the range of 0.1 to 1 µM; in assay [2], 0.01 to 0.1 µM.

With `Cn1cc([C@@H]2C[C@H]2c2c(C(=O)O)cnn2-c2cccc(Cn3ccnc3CC3CCCCCC3)c2)nn1` (racemic) [Example 23], the EC50 in assay [1] was 0.1 to 1 µM; in assay [2] it was 0.001 to 0.01 µM.

As for `CC[C@@H]1CN(Cc2cc(-n3ncc(C(=O)O)c3C3C[C@H]3c3cn(C)nn3)ccc2C)S(=O)(=O)c2ccccc2O1` (stereo partly drawn) [Example 25], the concentration giving a half-maximal response (EC50) in assay [1] fell in the range of 1 to 10 µM; in assay [2], 0.001 to 0.01 µM.

`COc1ccc(Cl)cc1S(=O)(=O)N(C)Cc1cccc(-n2ncc(C(=O)O)c2[C@@H]2C[C@H]2c2cn(C)nn2)c1` (racemic) [Example 40, 1-(3-((5-chloro-2-methoxy-N-methylphenyl-sulfonamido)-methyl)phenyl)-5-((trans)-2-(1-methyl-1H-1,2,3-triazol-4-yl)cyclo-propyl)-1H-pyrazole-4-carboxylic acid]: the EC50 was in the range of 1 to 10 µM in assay [1] and 0.1 to 1 µM in assay [2].

In the case of `C[C@@H]1Cc2cc(C(F)(F)F)ccc2S(=O)(=O)N(Cc2cccc(-n3ncc(C(=O)O)c3[C@@H]3C[C@H]3c3cn(C)nn3)c2)C1` (racemic) [Example 18, 1-(3-((4-methyl-1,1-dioxido-7-(trifluoromethyl)-4,5-dihydro-benzo[f][1,2]thiazepin-2(3H)-yl)methyl)phenyl)-5-((trans)-2-(1-methyl-1H-1,2,3-triazol-4-yl)cyclopropyl)-1H-pyrazole-4-carboxylic acid], the EC50 is 0.01 to 0.1 µM in assay [1] and 0.001 to 0.01 µM in assay [2].

Take `Cn1cc([C@@H]2C[C@H]2c2c(C(=O)O)cnn2-c2cccc(CN3Cc4cc(Br)ccc4OC(C)(C)C3)c2)nn1` (racemic) [Example 13]: the EC50 lay in the range of 0.1 to 1 µM in assay [1] and 0.001 to 0.01 µM in assay [2].

Take `CCCCCCN(Cc1cccc(-n2ncc(C(=O)O)c2[C@@H]2C[C@H]2c2cn(C)nn2)c1)S(=O)(=O)c1ccccc1Oc1ccccc1` (racemic) [Example 49, 1-(3-((N-hexyl-2-phenoxyphenylsulfonamido)methyl)phenyl)-5-((trans)-2-(1-methyl-1H-1,2,3-triazol-4-yl)cyclopropyl)-1H-pyrazole-4-carboxylic acid]: the EC50 in assay [1] and in assay [2] was 0.1 to 1 µM in each case.
